Here are results for one molecule from US20240374546A1, “USES AND METHODS FOR PROMOTING INCREASED MITOCHONDRIAL MASS AND FUNCTION” (Brightseed, Inc., priority 2022, published 2024).

Data set [1] is described as follows: Subcutaneous delivery of NCT to DIO mice. Format: in vivo, mouse. The settings on record: 2 weeks. The protocol: 12-week-old C57BL/6J DIO male mice were purchased from Jackson laboratory (cat #380050) and were fed with high fat diet (Research Diets, cat #D12492 60 kcal % fat). […] 14 week old mice were injected subcutaneously using sterile insulin syringes filled with DMSO or NCT (200 mg/kg of mouse body weight) bid for 2 weeks. For oral gavage, 14-week-old C57BL/6J DIO male mice were fed by oral gavage using a feeding needle attached to a sterile 1 ml syringe filled with 200 μL of methyl cellulose (MC, vehicle control) or 200 μL of NCT (200 mg/kg) dissolved in methyl cellulose twice a day for 2 weeks. […] For analysis all mice were sacrificed after 2 weeks of treatment.

The next data set addresses T1, HNF4α (Mus musculus, UniProt P49698).
T1 construct: from tissue; host or cells: liver of C57BL/6J mice
In words: Immunofluorescence of hepatic HNF4α in HFD mice. Format: in vivo. The settings on record: oral NCT in HFD chow, 10 weeks. The protocol: Frozen liver sections were permeabilized using 0.3% Triton-X and incubated in antigen retrieval solution (Antigen retrieval citrate, Biogenex) at sub-boiling temperature for 10 min. Subsequently, sections were incubated with blocking buffer containing 5% normal donkey serum (Jackson Immuno Research) followed by incubation overnight at 4° C. with mouse anti-HNF4α monoclonal antibody (1:800, Cat #PP-H1415-00, R&D Systems), rabbit polyclonal anti-VDAC antibody (1:400, cat #PA1-954A, Invitrogen) and cleaved caspase3 antibody (1:500, cat #9664, Cell Signaling). Sections were washed and incubated for 1 hour at room temperature with anti-mouse secondary antibody coupled with Alexa fluor 488 (1:400, Invitrogen) and antirabbit secondary antibody coupled with rhodamine red. Nuclei were visualized by counterstaining with DAPI (40,6-diamidino-2-phenylindole, Sigma Aldrich). Slides were mounted using fluorescence mounting medium and images were obtained at 40× magnification using an Olympus IX71 fluorescence microscope. Fluorescence intensity of HNF4α-stained nuclei and VDAC stained mitochondria was calculated using MetaMorph TL software (version 7.6.5.0, Olympus). Fold change was calculated by normalizing to values from mice fed NC.

Data set [2] has as its system mitochondrial DNA (ND1, 16S rRNA). Put plainly: Mitochondrial DNA analysis in mouse liver. It counts as in vivo. The settings on record: normalized with HK2. The protocol:
Quantification of mtDNA was performed as described (BCurr Protoc Mouse Biol 2017; 7:47-54). Snap frozen mouse liver was homogenized and total cellular DNA was extracted with a QIAamp DNA kit (Qiagen) followed b PCR with the primers below: […]

The nature of data set [3]: Blood count analysis (Hemavet). Conditions: HFD versus HFD+NCT. It counts as in vivo, mouse. As for the experimental part:
Mice were anesthetized and 20 μL of whole blood was collected via retro-orbital bleeding in lithium heparin blood collection tubes and 20 different hematologic parameters were measured using a Hemavet 950 FS blood count analyzer (Drew Scientific Group).

Data set [4] in a line: Oil red O staining of liver sections. Format: in vivo, mouse. The settings on record: HFD+NCT vs HFD, 10 weeks. As for the experimental part: Oil red O staining was performed as described previously (34). Slides containing frozen liver tissue sections from mice were air dried for 10-20 min followed by rehydration in distilled water. Sections were immersed in absolute propylene glycol (Cat #151957, MP Biomedicals, LLC, USA) for 2 min followed by 0.5% in Oil red O solution (Cat #K043, Poly Scientific R&D, USA) for 2 hours. Slides were then differentiated in 85% propylene glycol solution, washed with dH2O for 2 hours, and mounted using glycerin jelly mounting medium. All slides were scanned at a magnification of 20× using the Aperio Scanscope FL system (Aperio Technologies Inc., Vista, CA, USA). The liver area stained with oil red O was measured using image J software as described, with some modifications as follow, Oil red O-stained liver images were opened in Image J software. Using the Analyze>Set Scale command, the scale bar of the images was set to 200 um. RGB images were then converted into gray scale images using the Image>Type>RGB Stack command and were split into red, blue and green channels. Using the Image >Adjust>Threshold command, the threshold was manually set to highlight the Oil red O stained lipid droplets in the green channel. […] Fold change was calculated by normalizing the values to images from mice fed normal chow.

SMILES strings stand for the structures.

T1 sequence (P49698 whole entry): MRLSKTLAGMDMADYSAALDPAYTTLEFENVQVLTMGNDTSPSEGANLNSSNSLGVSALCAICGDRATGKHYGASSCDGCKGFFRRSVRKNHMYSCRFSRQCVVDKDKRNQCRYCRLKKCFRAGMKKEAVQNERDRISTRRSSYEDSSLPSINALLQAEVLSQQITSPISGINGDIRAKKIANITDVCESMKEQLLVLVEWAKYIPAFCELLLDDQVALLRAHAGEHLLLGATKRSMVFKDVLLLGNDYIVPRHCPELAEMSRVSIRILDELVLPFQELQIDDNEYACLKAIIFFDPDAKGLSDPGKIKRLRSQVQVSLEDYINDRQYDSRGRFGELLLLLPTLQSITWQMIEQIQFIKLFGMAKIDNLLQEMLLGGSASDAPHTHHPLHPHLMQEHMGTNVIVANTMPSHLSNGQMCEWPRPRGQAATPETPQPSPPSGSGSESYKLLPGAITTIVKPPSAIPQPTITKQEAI

Regarding `O=C(/C=C/c1ccc(O)c(O)c1)NCCc1ccc(O)cc1` [NCT, N-transcaffeoyltyramine], the “liver color after subcutaneous NCT” value in data set [1] (200 mg/kg bid, vs DMSO) is “No difference in liver color”. Besides, the “outcome of subcutaneous delivery” value in data set [1] (200 mg/kg, 2 doses per day, subcutaneous) is on record as “compound precipitation”. Also, the “hepatic HNF4α expression (HFD-induced decrease)” value on HNF4α was “reversed”. For the same molecule, in data set [2], the “mitochondrial DNA, 16S rRNA” value was “significant increase” and the “mitochondrial DNA, ND1” value is listed as “significant increase”. Besides, the hematological analysis entry in data set [3] is “no difference”. Further, the “Oil Red O staining of liver” value in data set [4] was “decreased Oil Red O staining”.
